Test results from patent publication US20190083462A1, “PREVENTION OF NSAID ENTEROPATHY WITH MICROBIOTA-DERIVED TRYPTOPHAN-METABOLITE” (THE TEXAS A&M UNIVERSITY SYSTEM, priority 2016, published 2019).

Columns and labels:
C57BL/6J mice = experiment: Histology and small intestinal morphometric measurements; format: in vivo
Procedure: Eight- to 10-week-old specific-pathogen-free C57BL/6J mice were purchased and allowed to acclimate for 2 weeks. Mice were fed standardized laboratory rodent diet and sterile water ad libitum. […] Mice were then rehoused on the basis of treatment group assignment, with 5 animals/group-cage. To induce NSAID enteropathy, mice in group 1 were gavaged once daily with indomethacin (5 mg/kg; for 7 days; Sigma Aldrich, St. Louis, Mo.) dissolved in dimethylysulfoxide (DMSO) (Sigma Aldrich, St. Louis, Mo.) and further diluted in phosphate buffered saline (PBS). […] All mice were gavaged with equal volumes (200 μL) and equal concentrations of DMSO (0.001%).
Feces were collected daily by placing individual animals in sterile plastic cups that were RNase- and DNase-free until they passed feces. The mice were immediately returned to their home cages and the feces immediately flash frozen at −80° C. All animals were euthanized via CO2 asphyxiation on day 8 (i.e., after 7 days of treatment). The small intestine was harvested, opened longitudinally, rinsed with ice-cold PBS, and the distal ⅓ of the intestinal mucosa was scraped for tissue gene expression analysis. The remaining small intestine was fixed in 4% paraformaldehyde, Swiss-rolled, paraffin-embedded, and stained with hematoxylin and eosin.
The slides were scored as previously described for intestinal inflammation (Jia Q, Lupton J R, Smith R, Weeks B R, Callaway E, Davidson L A, Kim W, Fan Y Y, Yang P, Newman R A, et al. Reduced colitis-associated colon cancer in Fat-1 (n-3 fatty acid desaturase) transgenic mice. Cancer Research 2008; 68:3985-91). Briefly, mucosal injury was determined by the following parameters scored from 0 (no evidence) to 3 (marked): mucosal ulceration, mucosal erosion, and presence of squamified epithelium. Inflammatory changes were scored similarly based on the following parameters: lymphocytic infiltration, plasma cell infiltration, and neutrophilic infiltration. Finally, an overall evidence of injury score was used to document total injury graded from 0 (none) to 4 (marked). Morphological parameters were obtained from digitally scanned slides using SPOT vr 5.0 software. Three sets of measurements from 3 separate sections were recorded for each animal by an observer blinded to treatment group. Measurements consisted of villus height, crypt depth, and submucosal mural thickness.

[1] = tested on: CD11b- and GR-1-positive cells (i.e., neutrophils); experiment: Flow cytometry of spleen and mesenteric lymph nodes; format: in vivo, mice; conditions: after 7 days of treatment
Procedure: Eight- to 10-week-old specific-pathogen-free C57BL/6J mice were purchased and allowed to acclimate for 2 weeks. Mice were fed standardized laboratory rodent diet and sterile water ad libitum. […] Mice were then rehoused on the basis of treatment group assignment, with 5 animals/group-cage. To induce NSAID enteropathy, mice in group 1 were gavaged once daily with indomethacin (5 mg/kg; for 7 days; Sigma Aldrich, St. Louis, Mo.) dissolved in dimethylysulfoxide (DMSO) (Sigma Aldrich, St. Louis, Mo.) and further diluted in phosphate buffered saline (PBS). […] Sigma Aldrich, St. Louis, Mo.) dissolved in sterile water warmed to 55° C. […] All mice were gavaged with equal volumes (200 μL) and equal concentrations of DMSO (0.001%). Feces were collected daily by placing individual animals in sterile plastic cups that were RNase- and DNase-free until they passed feces. The mice were immediately returned to their home cages and the feces immediately flash frozen at -80° C. All animals were euthanized via CO2 asphyxiation on day 8 (i.e., after 7 days of treatment). […] Life Technologies, Carlsbad, Calif.), homogenized, and prepared as a single cell suspension for flow cytometric analysis as previously described (Wang […]. Measuring bacterial load and immune responses in mice infected with Listeria monocytogenes. Journal of Visualized Experiments: JoVE 2011). […]

small intestinal mucosa = experiment: RNA sequencing (RNA-Seq) of the distal small intestinal mucosa; format: in vivo, mice
Excerpt: Eight- to 10-week-old specific-pathogen-free C57BL/6J mice were purchased and allowed to acclimate for 2 weeks. Mice were fed standardized laboratory rodent diet and sterile water ad libitum. Mice were randomly divided into the following 4 groups (n=5 mice/group): 1) NSAID (indomethacin); 2) indole; 3) NSAID+indole; and, 4) untreated controls. Mice were then rehoused on the basis of treatment group assignment, with 5 animals/group-cage. To induce NSAID enteropathy, mice in group 1 were gavaged once daily with indomethacin (5 mg/kg; for 7 days; Sigma Aldrich, St. Louis, Mo.) dissolved in dimethylysulfoxide (DMSO) (Sigma Aldrich, St. Louis, Mo.) and further diluted in phosphate buffered saline (PBS). Mice in group 2 received indole by gavage (20 mg/kg; once daily for 7 days; Sigma Aldrich, St. Louis, Mo.) dissolved in sterile water warmed to 55° C. Mice in group 3 received indole co-administered with indomethacin by gavage at the dosages described above. All mice were gavaged with equal volumes (200 μL) and equal concentrations of DMSO (0.001%).
Feces were collected daily by placing individual animals in sterile plastic cups that were RNase- and DNase-free until they passed feces. The mice were immediately returned to their home cages and the feces immediately flash frozen at −80° C. […]
RNA was extracted from the mucosal scrapings using an RNeasy mini kit (QIAGEN, Redwood City, Calif.) following the manufacturer's instructions and including on-column DNase treatment. RNA quantity was determined using a Nanodrop spectrophotometer (Fisher Thermoscientific) and the quality was assessed using the Nano6000 chip on a Bioanalyzer 2100(Agilent Technologies). […] Differentially expressed genes were determined using EdgeR based on the matrix of gene counts (Robinson M D, McCarthy D J, Smyth G K. edgeR: a Bioconductor package for differential expression analysis of digital gene expression data. Bioinformatics (Oxford, England) 2010; 26:139-40). Gene lists were analyzed through use of QIAGEN's Ingenuity® Pathway Analysis (IPA, QIAGEN, Redwood City, Calif. http://www.qiagen.com/ingenuity). […]

`COc1ccc2c(c1)c(CC(=O)O)c(C)n2C(=O)c1ccc(Cl)cc1` [NSAID, indomethacin] was tested. Which microscopic pathology scores (C57BL/6J mice; Swiss-rolled H & E stained small intestinal sections, n=5/group) did it give?
Its microscopic pathology scores is “significant difference from control”.

What about the “effect on the large intestine” value (C57BL/6J mice; data not shown) of the same molecule?
Its value is “negligible effect”.

And the “ratio of villus height to crypt depth” value (C57BL/6J mice; small intestinal mucosa)?
Its value is “significantly decreased”.

What about the “percentage of CD11b- and GR-1-positive cells (neutrophils) in the mesenteric lymph nodes (MLN)” value [1] of the same molecule?
Its value is “significant increase”.

And the “percentage of CD11b- and GR-1-positive cells (neutrophils) in the spleen” value [1]?
The value was “significant increase”.

What about the “NF-κB signaling pathway activation” value (small intestinal mucosa; RNA-Seq pathway analysis of mucosal scrapings) of the same molecule?
The value was “activated”.

And the “transcription of pro-inflammatory cytokines (IL-1α, IL-1β, TNF, IL-6) and chemokines (CXCL1, CXCL3, CXCL2, CXCL5, CCL2, CCL7)” value (small intestinal mucosa; small intestinal mucosal transcriptome after 7 days, vs control mice)?
The value was “significantly up-regulated”.
